Assay results reported in publication PMC4929566, “The metabolome of [2-^14C](−)-epicatechin in humans: implications for the assessment of efficacy, safety, and mechanisms of action of polyphenolic bioactives” (Scientific Reports, 2016).
“And” between values parts separate entries of the source, which are not always exact repeats. Identical values can stand only once.

Legend:
[1] = SREM profile in plasma after intragastric 14C-EC, mouse; format: in vivo, C57BL/6 mice; settings: 30 min after 2 mg/kg BW intragastric 14C-EC
Description: To assess the profile of SREMs in rodents, Sprague-Dawley rats (male, 9–10 week old, 270 ± 16 g of BW) and C57BL/6 mice (20 ± 1 g) were administered by gavage 2 mg/kg BW of ^14C-EC (corresponding to ≈10.6 μCi/rat and 6.7 μCi/mouse). Blood samples were collected 30 min after administration. Plasma was obtained by centrifugation at 4 °C for 15 min at 1800xg, separated in aliquots and analyzed by HPLC as described previously[18] with an on-line radioactivity detector (Radiomatic 610TR Flow System Analyzer, PerkinElmer, Inc., Waltham, Mass).

[2] = Metabolite profiling and quantification in urine (HPLC-MS2 with on-line radioactivity detector); format: in vivo, humans; settings: human
Description: (§1) The study was a single-center, open-label, and non-randomized study with two distinct elements: a run-in phase to establish a more defined dietary background of dietary flavanols and procyanidins and the subsequent ^14C-EC ADME study (Fig. 1B). Participants (n = 12) were enrolled in the run-in phase (day –17 to day –4) and asked to supplement their daily diet for 14 days with a commercially available flavanol-containing cocoa-based drink (250 mg cocoa flavanols; 40 mg of EC). This was followed by a 4-day period (day –4 to 0) of a low-flavanol diet. One day (study day -1) prior to the initialization of the ^14C-EC ADME study, all eligible participants were accommodated under controlled conditions at a metabolic research facility (Covance Clinical Pharmacology Inc., Wisconsin) until completion of the study. Based on the compliance of the first part of the study, 8 participants were selected to participate in the ^14C-EC ADME study. During the ^14C-EC ADME study (Fig. 1B.), volunteers received a low-flavanol, standardized high-fiber diet, and were encouraged to maintain an adequate level of hydration (water ad libitum). Volunteers were asked to fast for 8 h before the initiation of the study and for at least 4 h after the intake of the ^14C-EC test drink (water ad libitum). Venous blood samples were taken using Vacutainer collection tubes, containing potassium EDTA at 0 h (just prior to ^14C-EC ingestion), and at 0.25, 0.5, 1, 1.5, 2, 2.5, 3, 4, 6, 8, 10, 12, 16, 24, 36, and 48 h after test drink consumption. Plasma was obtained by whole blood centrifugation at 2000 × g for 15 min at 5 °C, separated into aliquots and stored at −80 °C until analysis. All urine and feces from the time just prior to the consumption of the test drink were collected at different time intervals for radioactivity and metabolite profiling. Clinical parameters and laboratory evaluations of participants were assessed at screening, on study day –1, and after completing the study, as detailed in Supplementary Methods.
(§2) Samples were processed as described previously[18] and analyzed by HPLC-MS^2 in conjunction with an on-line HPLC-radioactivity monitor as described in SI Materials and Methods. Identification of metabolites involved comparing the retention time with authentic standards and MS^2 fragmentation patterns (Supplementary Methods). Quantification of metabolites in urine was based on HPLC radioactivity peak area (limit of quantification: 10^3 dpm). Due to the low levels of radioactivity, quantification in plasma was based on targeted HPLC-MS^2 using standard curves obtained with authentic standards (Supplementary Methods).
HPLC-MS identifications of radiolabeled [2-14C](−)-epicatechin metabolites in urine Urine was analyzed with radioactivity and mass spectrometry (MS) detection using a 250 mm x 4.6 mm i.d. 5 µm Luna Phenyl-Hexyl column (Phenomenex, Macclesfield, UK) […]
formic acid. Metabolite identification was performed by 1) co-chromatography of metabolites with reference compounds and a comparison of their MS fragmentation patterns 2, 2) by comparing m/z fragmentation patterns with earlier in-house observed […]
patterns to databases of metabolites reported in earlier polyphenol feeding studies5-7.
Supplementary Table S2, which also provides information on the MSI MI (Metabolite Standards Initiative – Metabolites Identification) level, a confidence level for identification where level 1 stands for fully elucidated (i.e., by comparison with a standard) and level 2 for a well characterized, but not yet fully structurally elucidated 8

[3] = Metabolite profiling and pharmacokinetics in plasma (targeted HPLC-MS2); format: in vivo, humans; settings: human, oral 60 mg 14C-EC
Description: as §1, §2
Data are expressed as mean values ± standard error, or as otherwise specified. Pharmacokinetic parameters were calculated using non-compartmental analysis with WinNonlin (Pharsight Corporation, Version 5.2).
5-20% acetonitrile in 0.1 % formic acid. Supplementary Table S2 provides details of HPLC retention times and the m/z values that were monitored.
Supplementary Table S2. Detection of (−)-epicatechin metabolites. HPLC retention times and selected reaction monitoring ions used for the HPLC-MS analysis of (−)-epicatechin metabolites in plasma. […]
Structurally related (-)-epicatechin metabolites in humans: assessment using de novo chemically synthesized authentic standards. Free Radic Biol Med 52, 1403- […]
3 Borges, G. et al. Bioavailability of multiple components following acute ingestion of a polyphenol-rich juice drink. Mol Nutr Food Res 54 Suppl 2, S268-277, […]
4 Stalmach, A. et al. Absorption, metabolism, and excretion of green tea flavan-3-ols in humans with an ileostomy. Mol Nutr Food Res 54, 323-334,

[4] = Elimination and mass balance of radioactivity in urine and feces; format: in vivo, humans; settings: human
Description: as §1
The 50-mL drink consisted of an aqueous solution of ^14C-EC (specific activity 14.5 μCi μmol^−1) and delivered 60 mg (207 μmol) of EC and 300 μCi (660 × 10^6 dpm) of radioactivity. The drink was prepared one day before consumption to verify correctness of composition and stability. Volunteers received the ^14C-EC test drink (50 mL), followed by 3 × 50 mL of water that was used to rinse the test drink container, and 40 mL of water. The radioactivity remaining in the test drink containers was measured, and the residual radioactivity recovered from each container was subtracted from the amount administered to the corresponding volunteer.
Radioactivity in aliquots of plasma and urine was measured by liquid scintillation counting. Blood and feces were dried and oxidized by combustion using a 307 Sample Oxidizer (Packard Instrument Company, Meriden, NH) before being analyzed by liquid scintillation counting.

SMILES: Oc1cc(O)c2c(c1)O[C@H](c1ccc(O)c(O)c1)[C@H](O)C2 [^14C-EC, [2-^14C](−)-epicatechin]
- Detection in plasma [1]: No unmetabolized EC was detected
- Ingested 14C-EC absorbed via the colon / lower intestine ([2]; from urinary RFM excretion): ≈ 70% and 70%
- Ingested 14C-EC absorbed from the small intestine ([2]; from urinary SREM excretion): 20%
- Levels of unmetabolized EC in plasma and urine [3]: below the limits of detection
- Accumulated radioactivity voided in feces, of ingested 14C-EC ([4]; oral 60 mg 14C-EC): 12 ± 3%
- Radioactivity in urine and feces combined, of intake ([4]; oral 60 mg 14C-EC): 95 ± 1%
- Radioactivity not recovered in the collected samples ([4]; oral 60 mg 14C-EC): 5 ± 1%
- Accumulated radioactivity eliminated in urine, of amount ingested ([4]; oral 60 mg 14C-EC, liquid scintillation counting, 0–48 h): 82 ± 5%
- Ingested EC absorbed ([4]; oral 60 mg, n=8): 82 ± 5%
